# Measured values: BindingDB's records for patent US8829190 (Leo Pharma, 2014)
# pIC50: −log10 of the molar value.
# Molecular target: cAMP-specific 3',5'-cyclic phosphodiesterase 4D (Homo sapiens, UniProt Q08499)
# Test: Binding Assay
# Experimental: Human recombinant PDE4 (Gene bank accession no NM006203) was incubated for 1 hour with the test compound at concentrations up to 10 μM, with cAMP (1x10-5M), and with a low amount (0.021 MBq) of radioactively labelled cAMP. At the end of the incubation, the cleavage of the substrate was evaluated by the binding of the AMP product to SPA beads, which generate chemo luminescence when bound to the radioactive tracer. The AMP product inhibited the binding of the radioactive tracer to the beads, and the luminescent signal was competed.
# Sequence of cAMP-specific 3',5'-cyclic phosphodiesterase 4D (Q08499 whole entry): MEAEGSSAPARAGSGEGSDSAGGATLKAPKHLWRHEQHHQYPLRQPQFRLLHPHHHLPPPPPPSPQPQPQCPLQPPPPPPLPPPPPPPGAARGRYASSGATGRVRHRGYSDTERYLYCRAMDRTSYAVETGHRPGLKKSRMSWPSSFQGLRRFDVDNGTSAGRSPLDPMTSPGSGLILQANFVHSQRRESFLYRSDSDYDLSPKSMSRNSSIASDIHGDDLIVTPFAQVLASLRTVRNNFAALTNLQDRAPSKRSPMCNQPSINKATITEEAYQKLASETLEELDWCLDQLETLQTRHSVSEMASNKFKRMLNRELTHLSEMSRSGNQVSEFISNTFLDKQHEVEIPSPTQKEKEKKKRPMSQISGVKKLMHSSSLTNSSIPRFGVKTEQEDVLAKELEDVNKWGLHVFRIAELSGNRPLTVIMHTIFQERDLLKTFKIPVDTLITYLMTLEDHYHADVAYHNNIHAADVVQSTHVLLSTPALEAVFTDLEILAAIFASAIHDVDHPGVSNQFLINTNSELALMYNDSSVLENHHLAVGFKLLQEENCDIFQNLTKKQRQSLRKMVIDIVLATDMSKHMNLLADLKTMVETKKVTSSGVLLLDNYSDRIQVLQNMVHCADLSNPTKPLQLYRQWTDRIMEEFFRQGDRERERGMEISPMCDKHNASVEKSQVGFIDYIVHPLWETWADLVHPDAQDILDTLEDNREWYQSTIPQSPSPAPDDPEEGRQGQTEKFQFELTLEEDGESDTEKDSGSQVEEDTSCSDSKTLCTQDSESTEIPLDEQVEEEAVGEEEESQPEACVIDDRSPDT
compound,measurement,value
"COc1ccc(C(=O)Cc2ccccc2Cl)n2nc(C3CC3)nc12 [US8829190, 127]",pIC50,7.34
